# Source: patent US4804656A, “Novel androstane-17β-carboxylic acid esters” (Aktiebolaget Draco, priority 1985, dated 1989)
# Biological target: T1, glucocorticoid receptor (Rattus norvegicus, UniProt P06536)
# T1 construct: The thymus was removed and put into ice-cold saline; The tissue was homogenized in a Potter Elvehjem homogenizer; from tissue; host or cells: thymus of male Sprague-Dawley rats, 20,000×g supernatant of homogenate
# T1 sequence (P06536 1-795): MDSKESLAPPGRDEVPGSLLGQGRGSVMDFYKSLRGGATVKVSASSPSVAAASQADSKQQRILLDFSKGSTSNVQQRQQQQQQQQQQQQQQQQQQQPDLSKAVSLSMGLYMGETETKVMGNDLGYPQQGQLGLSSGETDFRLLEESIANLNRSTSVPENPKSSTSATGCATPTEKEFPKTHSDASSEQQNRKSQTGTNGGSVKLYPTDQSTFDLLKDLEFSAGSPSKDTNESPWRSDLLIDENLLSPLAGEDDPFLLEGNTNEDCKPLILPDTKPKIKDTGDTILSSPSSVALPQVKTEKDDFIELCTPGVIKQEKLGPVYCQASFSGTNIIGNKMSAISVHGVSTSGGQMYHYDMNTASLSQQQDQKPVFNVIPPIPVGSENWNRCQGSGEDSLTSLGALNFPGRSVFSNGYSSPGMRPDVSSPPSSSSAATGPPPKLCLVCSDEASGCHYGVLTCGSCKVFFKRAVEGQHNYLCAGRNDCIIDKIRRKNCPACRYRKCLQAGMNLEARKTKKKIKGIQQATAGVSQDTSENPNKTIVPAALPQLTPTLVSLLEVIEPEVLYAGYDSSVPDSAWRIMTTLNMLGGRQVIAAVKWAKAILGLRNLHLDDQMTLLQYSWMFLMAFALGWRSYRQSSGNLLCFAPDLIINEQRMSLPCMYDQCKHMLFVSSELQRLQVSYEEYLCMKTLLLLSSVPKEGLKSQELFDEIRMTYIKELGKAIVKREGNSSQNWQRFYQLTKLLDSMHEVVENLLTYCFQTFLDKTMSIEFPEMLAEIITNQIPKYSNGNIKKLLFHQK
# Assay: Affinity to the glucocorticoid receptor: competition with 3H-labelled dexamethasone in rat thymus 20,000×g supernatant
# Conditions: curves compared at the 50% specific binding level, referenced to budesonide = 1, 3 nM 3H-dexamethasone, about 24 h at 0° C.
# Method: All steroids according to the present invention are physiologically active compounds. The affinity of the novel androstane-17β-carboxylic acid esters to the glucocorticoid receptor has been used as a model for determination of the anti-inflammatory potency.
# Male Sprague-Dawley rats, one to two months of age, were used throughout the investigation. The thymus was removed and put into ice-cold saline. The tissue was homogenized in a Potter Elvehjem homogenizer in 10 ml of a buffer containing 20 mM Tris, pH 7.4, 10% (w/v) glycerol, 1 mM EDTA, 20 mM NaMoO4, 10 mM mercaptoethanol. The homogenate was centrifuged for 15 min at 20,000×g. Portions of the 20,000×g supernatant (230 μl) were incubated for about 24 h at 0° C. with 100 μl phenylmethylsulphonylfluoride (an esterase inhibitor, final conc. 0.5 mM), 20 μl unlabelled competitor and 50 μl ^3 H-labelled dexamethasone (final conc. 3 nM). Bound and free steroid were separated by incubating the mixture with 60 μl 2.5% (w/v) charcoal and 0.25% (w/v) dextran T70 suspension in […], pH 7.4, 1 mM EDTA, and […] for 10 min at 0° C. Following a centrifugation at 500×g for 10 min, 230 μl of the supernatant was counted in 10 ml Insta-Gel in a Packard scintillation spectrophotometer. The supernatants were incubated with a) [^3 H]dexamethasone alone, b) [^3 H] dexamethasone plus 1000 fold excess of unlabelled dexamethasone and c) [^3 H] dexamethasone plus 0.03-300 fold "excess" competitor. The nonspecific binding was determined when 1000 fold excess of unlabelled dexamethasone was added to [^3 H]-labelled dexamethasone.
# The radioactivity bound to the receptor in the presence of competitor divided by the radioactivity bound to the receptor in the absence of competitor multiplied by 100 gives the percentage specific binding of labelled dexamethasone. For each concentration of a competitor the percentage specifically bound radioactivity is plotted against the log of concentration of competitor. The curves are compared at the 50% specific binding level and reference to budesonide, which is assigned a relative binding affinity (RBA) of 1.
row,SMILES,RBA (relative binding affinity)
1,CCC(=O)O[C@]1(C(=O)OC(C)OC(=O)OCC(C)C)[C@@H](C)C[C@H]2[C@@H]3CCC4=CC(=O)C=C[C@]4(C)[C@@]3(F)[C@@H](O)C[C@@]21C (stereo partly shown) [Example 10b],0.82
2,"CCC(=O)O[C@]1(C(=O)OC(C)OC(=O)NC(C)C)[C@@H](C)C[C@H]2[C@@H]3CCC4=CC(=O)C=C[C@]4(C)[C@@]3(F)[C@@H](O)C[C@@]21C (single isomer, unassigned) [2 (epimer B), 1'-isopropylcarbamoyloxyethyl 9α-fluoro-11β-hydroxy-16β-methyl-3-oxo-17α-propionyloxyandrosta-1,4-diene-17β-carboxylate]",0.14
3,CCCCC(=O)O[C@]1(C(=O)OC(C)OC(=O)OC(C)C)[C@@H](C)C[C@H]2[C@@H]3CCC4=CC(=O)C=C[C@]4(C)[C@@]3(F)[C@@H](O)C[C@@]21C (stereo partly shown) [Example 22b],0.77
4,"CCOC(=O)OC(C)OC(=O)[C@@]1(OC(=O)CC)[C@H](C)C[C@H]2[C@@H]3C[C@H](F)C4=CC(=O)C=C[C@]4(C)[C@@]3(F)[C@@H](O)C[C@@]21C (single isomer, unassigned) [Example 26b]",0.45
5,CCC(=O)O[C@]1(C(=O)OC(C)OC(=O)OC(C)C)[C@@H](C)C[C@H]2[C@@H]3CCC4=CC(=O)C=C[C@]4(C)[C@@]3(F)[C@@H](O)C[C@@]21C (stereo partly shown) [Example 8b],1.50
6,CCC(=O)O[C@]1(C(=O)OC(C)OC(=O)OCC2CC2)[C@@H](C)C[C@H]2[C@@H]3CCC4=CC(=O)C=C[C@]4(C)[C@@]3(Cl)[C@@H](O)C[C@@]21C (stereo partly shown) [Example 32b],0.86
7,CCC(=O)O[C@]1(C(=O)OC(C)OC(=O)OC2CCCCC2)[C@@H](C)C[C@H]2[C@@H]3CCC4=CC(=O)C=C[C@]4(C)[C@@]3(F)[C@@H](O)C[C@@]21C (stereo partly shown) [Example 15b],0.54
8,C=CCOC(=O)OC(C)OC(=O)[C@@]1(OC(=O)CC)[C@@H](C)C[C@H]2[C@@H]3CCC4=CC(=O)C=C[C@]4(C)[C@@]3(F)[C@@H](O)C[C@@]21C (stereo partly shown) [Example 9b],0.39
9,CCC(=O)O[C@]1(C(=O)OC(C)OC(=O)OC)[C@@H](C)C[C@H]2[C@@H]3CCC4=CC(=O)C=C[C@]4(C)[C@@]3(F)[C@@H](O)C[C@@]21C (stereo partly shown) [Example 6b],0.42
10,"CCC(=O)O[C@]1(C(=O)OC(C)OC(C)=O)[C@@H](C)C[C@H]2[C@@H]3CCC4=CC(=O)C=C[C@]4(C)[C@@]3(F)[C@@H](O)C[C@@]21C (single isomer, unassigned) [4 (epimer B), 1'-acetyloxyethyl 9α-fluoro-11β-hydroxy-16β-methyl-3-oxo-17α-propionyloxyandrosta-1,4-diene-17β-carboxylate]",0.69
11,CCOC(=O)OC(C)OC(=O)[C@@]1(OC(=O)CC)[C@H](C)C[C@H]2[C@@H]3CCC4=CC(=O)C=C[C@]4(C)[C@@]3(F)[C@@H](O)C[C@@]21C (stereo partly shown) [Example 24b],0.55
12,CCC(=O)O[C@]1(C(=O)OC(C)OC(=O)OC2CCC2)[C@@H](C)C[C@H]2[C@@H]3CCC4=CC(=O)C=C[C@]4(C)[C@@]3(F)[C@@H](O)C[C@@]21C (stereo partly shown) [Example 13b],1.3
13,CCC(=O)O[C@]1(C(=O)OC(C)OC(=O)OC2CCCC2)[C@@H](C)C[C@H]2[C@@H]3CCC4=CC(=O)C=C[C@]4(C)[C@@]3(F)[C@@H](O)C[C@@]21C (stereo partly shown) [Example 14b],1.2
14,"CCC(=O)O[C@]1(C(=O)OC(C)OC(=O)OCc2ccc([N+](=O)[O-])cc2)[C@@H](C)C[C@H]2[C@@H]3CCC4=CC(=O)C=C[C@]4(C)[C@@]3(F)[C@@H](O)C[C@@]21C (single isomer, unassigned) [Example 19b]",0.53
15,CCOC(=O)OC(C)OC(=O)[C@@]1(OC(=O)CC)[C@@H](C)C[C@H]2[C@@H]3CCC4=CC(=O)C=C[C@]4(C)[C@@]3(Cl)[C@@H](O)C[C@@]21C (stereo partly shown) [Example 28b],1.0
16,CCCOC(=O)OC(C)OC(=O)[C@@]1(OC(=O)CC)[C@@H](C)C[C@H]2[C@@H]3CCC4=CC(=O)C=C[C@]4(C)[C@@]3(F)[C@@H](O)C[C@@]21C (stereo partly shown) [Example 7b],0.95
17,"CCCCC(=O)O[C@]1(C(=O)OC(C)OC(=O)N(CC)CC)[C@@H](C)C[C@H]2[C@@H]3CCC4=CC(=O)C=C[C@]4(C)[C@@]3(F)[C@@H](O)C[C@@]21C (single isomer, unassigned) [3 (epimer B), 1'-diethylcarbamoyloxyethyl 9αfluoro-11β-hydroxy-16β-methyl-3-oxo-17α-valeroyloxyandrosta-1,4-diene-17β-carboxylate]",0.47
18,C=C(C)COC(=O)OC(C)OC(=O)[C@@]1(OC(=O)CC)[C@@H](C)C[C@H]2[C@@H]3CCC4=CC(=O)C=C[C@]4(C)[C@@]3(F)[C@@H](O)C[C@@]21C (stereo partly shown) [Example 16b],0.51
19,"CCOC(=O)OC(C)OC(=O)[C@@]1(OC(=O)CC)[C@@H](C)C[C@H]2[C@@H]3CCC4=CC(=O)C=C[C@]4(C)[C@@]3(F)[C@@H](O)C[C@@]21C (single isomer, unassigned) [1 (epimer B), 1'-ethoxycarbonyloxyethyl 9α-fluoro-11β-hydroxy-16β-methyl-3-oxo-17α-propionyloxyandrosta-1,4-diene-17β-carboxylate]",0.80
